The record followed here is patent US10822317B2, “Methods and compositions for wound healing” (QBiotics Limited, priority 2013, dated 2020).

A value given as a limit tells only on which side of the number the result lay.

For assay [1], the system named is human neonatal fibroblast cells (NFFs). The assay can be described thus: Western blot of signalling molecules in human neonatal fibroblasts. Type of assay: cell-based. Conditions: 10 or 30 ng/mL. The protocol: The Western Blot method was used to identify effects of Compounds 1 and 42 on proteins relevant to would repair and healing in human neonatal fibroblast cells (NFFs). Two studies were conducted. In the first study; NFFs were treated with either 10 or 30 ng Compound 1/mL for 6 or 24 hours, before harvesting and protein extraction. In the second study NFFs were treated individually with 30 ng/mL concentrations of Compounds 1 and 42 respectively for 6 hours. The resulting lysates from both studies were subjected to western blot analysis, and probing with specific antibodies to key signalling molecules involved in wound repair and healing.
The medium from adherent human neonatal fibroblasts grown in 75 cm^2 plates was removed and the cells were washed twice in ice cold PBS. The attached cells were harvested in 10 mL of ice cold PBS using a cell scraper (Costar, Corning) pelleted by centrifugation for 5 min (1,500 rpm, RTemp), resuspended in 1 mL of ice-cold PBS, and transferred to a 1.5 mL microfuge tube.
The cells were collected by centrifugation (13,200 rpm, RTemp, 2 s), the PBS removed and the pellets stored at −20° C. until required.
The frozen pellets were thawed on ice, and resuspended in a volume of cell lysis buffer 3-4 times the volume of the pellet by pipetting up and down. The cell suspension was sonicated 60 s at 4° C. and centrifuged for 20 min (13,200 rpm, 4° C.) and the […] containing the protein transferred to a fresh 1.5 ml microfuge tube. The protein was stored at −20° C.
Protein samples were diluted 1/10 and 1/20 (v/v) in MilliQ water and 10 μL was plated out in duplicate in. a flat-bottomed 96-well plate (Costar®, Corning). Stock solutions of bovine serum albumin (BSA) were prepared at 100, 200, 400, 600, 1,000, and 1,200 μg/mL and 10 μL/well plated out in duplicate and assayed alongside the samples. […] The raw absorbances were read at A590 nm on a microplate reader (VERSAmax, Molecular Devices) and a standard curve produced using SOFTmax PRO software (Molecular Devices). […]

Assay [2] deals with infected bone wound; infectious vasculitis in the ear. As to the kind of experiment: Veterinary case studies 8 and 9, tree kangaroo wounds. Format: in vivo, Dendrolagus lumholtzi. As to the method:
Seven dogs (Canis lupus familiaris) and one tree kangaroo (Dendrolagus humholzii) with chronic, non-healing wounds that were unresponsive to current veterinary standards-of-care for these indications were treated with Compound 1 by independent veterinarians. A second tree kangaroo and a spectacled flying fox (Pteropus conspicillatus) with wounds unsuited for initial treatment with current standards-of-care were also treated with Compound 1. All cases were managed as open wounds without the use of dressings or other bandaging during the course of treatment with Compound 1 and the subsequent period of wound resolution. Unless stated in individual case studies, no concomitant medications were used over the course of treatments with Compound 1.
The patient was treated for 1 month with injectable antibiotics ceftazidime (Fortum) and trimethoprim sulphamethoxazole (TMS). […] Within 10 minutes of the application of Compound 1 gel there was a purulent discharge from the treated area. • On presentation 8 days after the first treatment a purulent discharge was oozing from 2 of the 3 wounds on the leg. The other wound (smallest lesion on the heal) had contracted and commenced healing. A further treatment of 0.15 mL of 5 mg/mL gel formulation of Compound 1 was used to treat each of the two open wounds (one over the ankle joint, the other on the base of the foot pad). A slow IV. infusion of sodium iodide was also given. • A further 15 days later (23 days after initial treatment) several mLs of thick purulent pus was squeezed from the wound on the pad of the foot before forcing 0.15 mL of 5 mg/mL gel formulation of Compound 1 into the drained wound sinus. • One week later there was significant improvement. in the infection. A small piece of bone was removed from the hole in the foot pad. There was no pus evident but there was a serous discharge. A further 0.2 mL. of the Compound 1 gel was applied to each of lesions, one over the ankle, the other underneath the foot. A slow IV infusion of sodium iodide was also delivered. Limb is now weight bearing. but the heal and foot pad is still very firm with inflammation and the animal's gait is very uneven and strongly favouring the undamaged hind leg. • A further 15 days later the wound over the ankle joint had fully closed and hair was growing back. The wound on the heal of the foot pad had contracted to less than 50% of its size at the previous visit and the surrounding skin and tissue is soft, pliable and normal.
Case notes: • The patient presented as a young injured animal found in the wild. • Patient was very weak, dehydrated and anaemic. […] Patient was placed on fluid therapy and medicated with anti-nausea drug maropitant citrate (cerenia) and two injectable antibiotic formulations Tribacteral (trimethoprim, sulfadiazine) and ceftazidime (fortum). • After 9 days on a fluid drip the patient's condition had improved but there was trauma to the right ear and likely infectious vasculitis and gangrene. Surgery was not possible because of significant anaesthetic risk due to the patient's highly compromised condition. Instead, treatment with a gel formulation of Compound 1 was initiated. • Three treatments of 0.1 mL of 5 mg/mL strength Compound 1 gel were applied to the affected area at 7 day intervals. The only concurrent medication during this time was the cephalosporin antibiotics deftazidime (fortum). • At 7 days after the first treatment of Compound 1 gel, a tightly adhering eschar covered the wound surface.

Where [3] appears, read: Case 8, 15 days after the fourth application.

Turning to `CC=C(C)C(=O)OC1C(C)C2(O)C(C3OC3(CO)C(O)C3(O)C(=O)C(C)=CC32)C2C(C)(C)C12OC(=O)C(C)CC` (stereo not shown) [Compound 1, 12-tigloyl-13-(2-methylbutanoyl)-6,7-epoxy-4,5,9,12,13,20-hexahydroxy-1-tigliaen-3-one], the “levels of MMP9 (Western blot)” value in assay [1] (6 or 24 hours) was “No difference”. Moreover, the “activation of MEK1/2 and ERK/2 (Western blot)” value in assay [1] (6 hours) is “transient activation”. For the same compound, the “activation of MEK1/2 and ERK/2 (Western blot)” value in assay [1] (24 hours) was “down-regulation of activation”. The “time to purulent discharge from the treated area” value in assay [2] (Case 8, tree kangaroo, infected bone wound, first application 0.1 mL gel 5 mg/mL per lesion) is at most 10 min. In addition, the “wound outcome, wound over the ankle joint” value in assay [2] (Case 8, 4 applications gel 5 mg/mL, 15 days after the fourth application) was “fully closed”. In addition, in assay [2] (setting [3]), the limb function entry was “fully weight bearing” and the “wound on the heal of the foot pad, % of its size at the previous visit” value is recorded as “less than 50%”. Further, the “reduction of wound area” value in assay [2] (Case 9, tree kangaroo, ear, 3 x 0.1 mL gel 5 mg/mL at 7 day intervals, 14 days after initial treatment) is reported as “approximately 50%”. Also, the wound status result in assay [2] (Case 9, 25 days) is “healthy tissue was present over the entire area of the wound”. Moreover, in assay [2] (Case 9, 67 days), the wound outcome was “totally resolved and there was full hair coverage over the ear”.
